Patent publication US8975214B2, “Emulsion adjuvant for herbicides” (Innovative Chemical Services Pty Ltd, priority 2010, dated 2015)

System: Oats
Assay: Glasshouse trial: adjuvant effect when applied with glyphosate to control oats
Format: in vivo
Conditions: no adjuvant, 14 days after treatment
Excerpt: In this example, the adjuvant effect of Compositions C and D from Example 1 was compared with a range of commercially available adjuvants when applied with glyphosate in 2 water hardnesses to control oats in a glasshouse.

Compound: O=C(O)CNCP(=O)(O)O [Glyphosate, glyphosate]
- Fresh Weight % of untreated control (glyphosate 50 g a.i./ha, water hardness 50 ppm CaCO3, oats 1.5-2 leaf): 73 % of untreated control
- Fresh Weight % of untreated control (glyphosate 50 g a.i./ha, water hardness 300 ppm CaCO3): 106 % of untreated control
- Fresh Weight % of untreated control (glyphosate 100 g a.i./ha, water hardness 50 ppm CaCO3): 52 % of untreated control
- Fresh Weight % of untreated control (glyphosate 100 g a.i./ha, water hardness 300 ppm CaCO3): 65 % of untreated control
